Measurements: PMC8000495, “A New Anti-Estrogen Discovery Platform Identifies FDA-Approved Imidazole Anti-Fungal Drugs as Bioactive Compounds against ERα Expressing Breast Cancer Cells” (International Journal of Molecular Sciences, 2021)

Assays:
[1] = biological target: T1, estrogen receptor α (ERα) (Homo sapiens, UniProt P03372); assay: fluorescence polarization competitive binding, dose-response
T1 construct: gene ESR1
T1 sequence (P03372 1-595): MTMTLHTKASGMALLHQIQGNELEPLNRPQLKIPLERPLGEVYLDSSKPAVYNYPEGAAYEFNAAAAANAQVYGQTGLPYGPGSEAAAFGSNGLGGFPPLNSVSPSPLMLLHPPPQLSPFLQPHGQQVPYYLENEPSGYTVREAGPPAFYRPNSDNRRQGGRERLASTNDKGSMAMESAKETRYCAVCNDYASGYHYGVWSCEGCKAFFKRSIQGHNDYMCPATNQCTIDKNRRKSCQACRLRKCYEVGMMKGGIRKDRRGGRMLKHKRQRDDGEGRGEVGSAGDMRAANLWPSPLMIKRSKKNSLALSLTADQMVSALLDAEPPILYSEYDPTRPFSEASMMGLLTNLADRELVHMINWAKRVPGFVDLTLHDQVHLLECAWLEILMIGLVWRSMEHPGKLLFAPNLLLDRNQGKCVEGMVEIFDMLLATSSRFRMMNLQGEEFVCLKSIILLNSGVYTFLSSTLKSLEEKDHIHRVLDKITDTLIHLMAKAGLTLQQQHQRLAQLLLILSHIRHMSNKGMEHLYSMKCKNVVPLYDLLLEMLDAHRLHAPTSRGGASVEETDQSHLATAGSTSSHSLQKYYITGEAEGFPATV

[2] = biological target: T1, estrogen receptor α (ERα)

## Clc1ccc(C(Cn2ccnc2)OCc2ccc(Sc3ccccc3)cc2)c(Cl)c1 (centres unmarked) [Fenti, fenticonazole]
[1]
  IC50: ~14 µM

## Oc1ccc(/C=C/c2cc(O)cc(O)c2)cc1 [resveratrol]
[2]
  fluorescence polarization competitive binding screen, single dose 10^-4 M, Z* >: we found well-known receptor ligands (e.g., estriol, resveratrol, genistein)
